ChEMBL document CHEMBL2346514, “Efficient synthesis and antimicrobial activity of some novel S-β-d-glucosides of 5-aryl-1,2,4-triazole-3-thiones derivatives” (2013)
≈ marks a conversion by molar mass, not a printed value. Calls of active or inactive are those of the source. The rule behind the calls is not given here.

Tests used:
Type in all cases: functional
[1] = Antifungal activity against Monilia albican ATCC 10231 after 24 to 72 hrs by NCCLS method
[2] = system: Escherichia coli; assay: Antibacterial activity against Escherichia coli ATCC 8099 after 24 hrs by NCCLS method
[3] = system: Staphylococcus aureus; assay: Antibacterial activity against Staphylococcus aureus ATCC 6538 after 24 hrs by NCCLS method

| Molecule | MFC [1] | MIC [1] | MBC ([2]; ATCC 8099, 24 h) | MIC ([2]; ATCC 8099, 24 h) | MBC ([3]; ATCC 6538, 24 h) | MIC ([3]; ATCC 6538, 24 h) | MBC [2] | MIC [2] | MBC [3] | MIC [3] |
| --- | --- | --- | --- | --- | --- | --- | --- | --- | --- | --- |
| CC(=O)OC[C@H]1O[C@@H](Sc2nnc(-c3ccccc3)n2/N=C/c2cc(Br)cc(Br)c2O)[C@H](OC(C)=O)[C@@H](OC(C)=O)[C@@H]1OC(C)=O | 16 µg/mL (≈ 20.4 µM) | 16 µg/mL (≈ 20.4 µM) | 16 µg/mL (≈ 20.4 µM) | 16 µg/mL (≈ 20.4 µM) | 32 µg/mL (≈ 40.8 µM) | 16 µg/mL (≈ 20.4 µM) | – | – | – | – |
| CC(=O)OC[C@H]1O[C@@H](Sc2nnc(-c3ccccc3O)n2/N=C/c2ccccc2Cl)[C@H](OC(C)=O)[C@@H](OC(C)=O)[C@@H]1OC(C)=O | 64 µg/mL (≈ 96.8 µM) | 32 µg/mL (≈ 48.4 µM) | 128 µg/mL (≈ 194 µM) | 128 µg/mL (≈ 194 µM) | 128 µg/mL (≈ 194 µM) | 128 µg/mL (≈ 194 µM) | – | – | – | – |
| GENTAMICIN | 4 µg/mL | 4 µg/mL | – | – | – | – | 4 µg/mL | 2 µg/mL | 2 µg/mL | 2 µg/mL |
| CC(=O)OC[C@H]1O[C@@H](Sc2nnc(-c3ccccc3)n2/N=C/c2ccccc2Cl)[C@H](OC(C)=O)[C@@H](OC(C)=O)[C@@H]1OC(C)=O | 64 µg/mL (≈ 99.2 µM) | 64 µg/mL (≈ 99.2 µM) | 128 µg/mL (≈ 198 µM) | 128 µg/mL (≈ 198 µM) | 128 µg/mL (≈ 198 µM) | 128 µg/mL (≈ 198 µM) | – | – | – | – |
| OC(Cn1cncn1)(Cn1cncn1)c1ccc(F)cc1F [FLUCONAZOLE] | 4 µg/mL (≈ 13.1 µM) | 2 µg/mL (≈ 6.53 µM) | 128 µg/mL (≈ 418 µM) | 128 µg/mL (≈ 418 µM) | 32 µg/mL (≈ 104 µM) | 16 µg/mL (≈ 52.2 µM) | – | – | – | – |
| CC(=O)OC[C@H]1O[C@@H](Sc2nnc(-c3ccccc3O)n2/N=C/c2cc(Br)ccc2O)[C@H](OC(C)=O)[C@@H](OC(C)=O)[C@@H]1OC(C)=O | 16 µg/mL (≈ 22.2 µM) | 16 µg/mL (≈ 22.2 µM) | 128 µg/mL (≈ 177 µM) | 128 µg/mL (≈ 177 µM) | 128 µg/mL (≈ 177 µM) | 64 µg/mL (≈ 88.7 µM) | – | – | – | – |
| CC(=O)OC[C@H]1O[C@@H](Sc2nnc(-c3ccccc3O)n2/N=C/c2ccccc2)[C@H](OC(C)=O)[C@@H](OC(C)=O)[C@@H]1OC(C)=O | 32 µg/mL (≈ 51.1 µM) | 32 µg/mL (≈ 51.1 µM) | 256 µg/mL (≈ 409 µM) | 128 µg/mL (≈ 204 µM) | 256 µg/mL (≈ 409 µM) | 128 µg/mL (≈ 204 µM) | – | – | – | – |
| Oc1cc(Cl)ccc1Oc1ccc(Cl)cc1Cl [TRICLOSAN] | 64 µg/mL (≈ 221 µM) | 32 µg/mL (≈ 111 µM) | 4 µg/mL (≈ 13.8 µM) | 2 µg/mL (≈ 6.91 µM) | 4 µg/mL (≈ 13.8 µM) | 4 µg/mL (≈ 13.8 µM) | – | – | – | – |
| CC(=O)OC[C@H]1O[C@@H](Sc2nnc(-c3ccccc3)n2/N=C/c2cc(Br)ccc2O)[C@H](OC(C)=O)[C@@H](OC(C)=O)[C@@H]1OC(C)=O | 16 µg/mL (≈ 22.7 µM) | 16 µg/mL (≈ 22.7 µM) | 128 µg/mL (≈ 181 µM) | 128 µg/mL (≈ 181 µM) | 32 µg/mL (≈ 45.4 µM) | 32 µg/mL (≈ 45.4 µM) | – | – | – | – |
| CC(=O)OC[C@H]1O[C@@H](Sc2nnc(-c3ccccc3)n2/N=C/c2ccccc2)[C@H](OC(C)=O)[C@@H](OC(C)=O)[C@@H]1OC(C)=O | 64 µg/mL (≈ 105 µM) | 32 µg/mL (≈ 52.4 µM) | 128 µg/mL (≈ 210 µM) | 128 µg/mL (≈ 210 µM) | 64 µg/mL (≈ 105 µM) | 64 µg/mL (≈ 105 µM) | – | – | – | – |
| CC(=O)OC[C@H]1O[C@@H](Sc2nnc(-c3ccccc3O)n2/N=C/c2cc(Br)cc(Br)c2O)[C@H](OC(C)=O)[C@@H](OC(C)=O)[C@@H]1OC(C)=O | 32 µg/mL (≈ 40 µM) | 16 µg/mL (≈ 20 µM) | 16 µg/mL (≈ 20 µM) | 16 µg/mL (≈ 20 µM) | 32 µg/mL (≈ 40 µM) | 32 µg/mL (≈ 40 µM) | – | – | – | – |
| CC(=O)OC[C@H]1O[C@@H](Sc2nnc(-c3ccccc3O)n2/N=C/c2cc(Cl)ccc2O)[C@H](OC(C)=O)[C@@H](OC(C)=O)[C@@H]1OC(C)=O | 32 µg/mL (≈ 47.3 µM) | 16 µg/mL (≈ 23.6 µM) | 256 µg/mL (≈ 378 µM) | 128 µg/mL (≈ 189 µM) | 128 µg/mL (≈ 189 µM) | 128 µg/mL (≈ 189 µM) | – | – | – | – |
| CC(=O)OC[C@H]1O[C@@H](Sc2nnc(-c3ccccc3)n2/N=C/c2ccccc2O)[C@H](OC(C)=O)[C@@H](OC(C)=O)[C@@H]1OC(C)=O | 64 µg/mL (≈ 102 µM) | 32 µg/mL (≈ 51.1 µM) | – | – | 128 µg/mL (≈ 204 µM) | 64 µg/mL (≈ 102 µM) | inactive | inactive | – | – |
| CC(=O)OC[C@H]1O[C@@H](Sc2nnc(-c3ccccc3)n2/N=C/c2cc(Cl)ccc2O)[C@H](OC(C)=O)[C@@H](OC(C)=O)[C@@H]1OC(C)=O | 32 µg/mL (≈ 48.4 µM) | 16 µg/mL (≈ 24.2 µM) | 128 µg/mL (≈ 194 µM) | 128 µg/mL (≈ 194 µM) | 128 µg/mL (≈ 194 µM) | 64 µg/mL (≈ 96.8 µM) | – | – | – | – |
| CC(=O)OC[C@H]1O[C@@H](Sc2nnc(-c3ccccc3O)n2/N=C/c2ccccc2O)[C@H](OC(C)=O)[C@@H](OC(C)=O)[C@@H]1OC(C)=O | 64 µg/mL (≈ 99.6 µM) | 64 µg/mL (≈ 99.6 µM) | 64 µg/mL (≈ 99.6 µM) | 64 µg/mL (≈ 99.6 µM) | 128 µg/mL (≈ 199 µM) | 128 µg/mL (≈ 199 µM) | – | – | – | – |
